Reference: US20230203043A1, “NOVEL IMIDAZOPYRAZINE DERIVATIVES” (Hoffmann-La Roche Inc., priority 2020, published 2023)
Where a name gives a salt, the structure may show the parent alone.

Each compound was assayed on Acinetobacter baumannii ATCC17961 (assay: Antimicrobial susceptibility testing: 90% growth inhibitory concentration (IC90) determination in Iso-Sensitest broth, OD600 growth). Settings: Acinetobacter baumannii, ATCC17961, 16 h, read-out: A. baumannii ATCC 17961 IC90 (uM), strain ATCC 17961, OD600 growth over 16 h.
Assay type: cell-based
Method: Antimicrobial Susceptibility Testing:
90% Growth Inhibitory Concentration (IC90) Determination
The in vitro antimicrobial activity of the compounds was determined according to the following procedure:
The assay used a 10-points Iso-Sensitest broth medium to measure quantitatively the in vitro activity of the compounds against Acinetobacter baumannii ATCC17961 or ATCC17968.
Stock compounds in DMSO were serially twofold diluted (e.g. range from 50 to 0.097 μM final concentration) in 384 wells microtiter plates and inoculated with 49 μl the bacterial suspension in Iso-Sensitest medium to have a final cell concentration of ˜5×10^(5) CFU/ml in a final volume/well of 50 ul/well. Microtiter plates were incubated at 35±2° C.
Bacterial cell growth was determined with the measurement of optical density at λ=600 nm each 20 minutes over a time course of 16 h. Growth inhibition was calculated during the logarithmic growth of the bacterial cells with determination of the concentration inhibiting 50% (IC50) and 90% (IC90) of the growth.
Table 7 provides the 90% growth inhibitory concentrations (IC90) in micromoles per liter of the compounds of present invention obtained against the strain Acinetobacter baumannii ATCC17961 and/or ATCC17968.

SMILES | IC90 [µM]
CCc1cc(Nc2nccn3c(-c4cn(Cc5cccnc5)nc4C(F)(F)F)cnc23)ccc1C(=O)NCCCNCCCCNCCCN [Example 7, N-[3-[4-(3-aminopropylamino)butylamino]propyl]-2-ethyl-4-[[3-[1-(pyridin-3-ylmethyl)-3-(trifluoromethyl)pyrazol-4-yl]imidazo[1,2-a]pyrazin-8-yl]amino]benzamide hydrochloride] | 0.782

Same assay, conditions: Acinetobacter baumannii, ATCC17961, 16 h, strain ATCC 17961, OD600 growth over 16 h, read-out: A. baumannii ATCC 17961 IC90

SMILES | IC90 [µM]
C#CC(C)n1cc(-c2cnc3c(Nc4ccc(C(=O)N5CCN(C(=O)C(C)N)CC5)c(CC)c4)nccn23)c(C(F)F)n1 (stereo in doubt) [Example 784, (2R)-2-amino-1-(4-(4-((3-(1-(but-3-yn-2-yl)-3-(difluoromethyl)-1H-pyrazol-4-yl)imidazo [1,2-a]pyrazin-8-yl)amino)-2-ethylbenzoyl)piperazin-1-yl)propan-1-one (mixture of epimers)] | 1.24
C#CC(C)n1cc(-c2cnc3c(Nc4ccc(C(=O)N5CCN(C(=O)[C@H]6C[C@H](O)CN6)CC5)c(CC)c4)nccn23)c(C(F)F)n1 (stereo in doubt) [Example 787, (4-(4-((3-(1-(but-3-yn-2-yl)-3-(difluoromethyl)-1H-pyrazol-4-yl)imidazo[1,2-a]pyrazin-8-yl)amino)-2-ethylbenzoyl)piperazin-1-yl)((2R,4S)-4-hydroxypyrrolidin-2-yl)methanone (mixture of epimers)] | 1.57
CCc1cc(Nc2nccn3c(-c4cn(Cc5ccncn5)nc4C(F)(F)F)cnc23)ccc1C(=O)NCCOCCN [Example 2, N-[2-(2-aminoethoxy)ethyl]-2-ethyl-4-[[3-[1-(pyrimidin-4-ylmethyl)-3-(trifluoromethyl)pyrazol-4-yl]imidazo[1,2-a]pyrazin-8-yl]amino]benzamide] | 0.513
CCc1cc(Nc2nccn3c(-c4cn(CC#N)nc4C(F)(F)F)cnc23)ccc1C(=O)NCCNC(=O)[C@@H]1CCCN1 [Example 3, (2S)—N-[2-[[4-[[3-[1-(cyanomethyl)-3-(trifluoromethyl)pyrazol-4-yl]imidazo[1,2-a]pyrazin-8-yl]amino]-2-ethylbenzoyl]amino]ethyl]pyrrolidine-2-carboxamide] | 0.16
C#CCNC(=O)c1c(C)cc(Nc2nccn3c(-c4cn(CC#N)nc4C(F)(F)F)cnc23)cc1F [Example 4, 4-[[3-[1-(cyanomethyl)-3-(trifluoromethyl)pyrazol-4-yl]imidazo[1,2-a]pyrazin-8-yl]amino]-2-fluoro-6-methyl-N-prop-2-ynylbenzamide] | 0.132
C#CCn1cc(-c2cnc3c(Nc4ccc(C(=O)N5CCN(C(=O)C6CCNCC6)CC5)c(CC)c4)nccn23)c(C(F)(F)F)n1 [Example 5, [2-ethyl-4-[[3-[1-prop-2-ynyl-3-(trifluoromethyl)pyrazol-4-yl]imidazo[1,2-a]pyrazin-8-yl]amino]phenyl]-[4-(piperidine-4-carbonyl)piperazin-1-yl]methanone] | 0.262
NCC(=O)N1CCN(C(=O)c2ccc(Nc3nccn4c(-c5cn(CC(F)F)nc5C(F)(F)F)cnc34)cc2Cl)CC1 [Example 6, 2-amino-1-[4-[2-chloro-4-[[3-[1-(2,2-difluoroethyl)-3-(trifluoromethyl)pyrazol-4-yl]imidazo[1,2-a]pyrazin-8-yl]amino]benzoyl]piperazin-1-yl]ethanone] | 0.159
NCCNC(=O)CNC(=O)c1ccc(Nc2nccn3c(-c4cn(CCF)nc4C(F)(F)F)cnc23)cc1Cl [Example 8, N-[2-(2-aminoethylamino)-2-oxoethyl]-2-chloro-4-[[3-[1-(2-fluoroethyl)-3-(trifluoromethyl)pyrazol-4-yl]imidazo[1,2-a]pyrazin-8-yl]amino]benzamide formate] | 0.484

Same assay, conditions: strain ATCC 17961, OD600 growth over 16 h, read-out: A. baumannii ATCC 17961 IC90

SMILES | IC90 [µM]
C=CCn1cc(-c2cnc3c(Nc4ccc(C(=O)NCCOCC(C)N)c(CC)c4)nccn23)c(C(F)(F)F)n1 (stereo in doubt) [Example 146, N-[2-[(2S)-2-aminopropoxy]ethyl]-2-ethyl-4-[[3-[1-prop-2-enyl-3-(trifluoromethyl)pyrazol-4-yl]imidazo[1,2-a]pyrazin-8-yl]amino]benzamide] | 0.028
